Assay results: patent US8937183B2, “Detection of hydrogen peroxide” (Promega Corporation, priority 2011, dated 2015)

How the values were obtained:
[1] = Light generation from compounds following incubation with hydrogen peroxide in different pH solutions (D-cysteine conversion, LDR); type: biochemical; settings: for Signal to Background Ratios: signal with peroxide to background no peroxide
Procedure: In this experiment, various compounds were tested for their ability to detect hydrogen peroxide in different pH solutions. Several compounds are shown to give much better signal strength and signal to background ratios than PBI 3048 (Example 23). 4 mg/ml solutions of compounds PBI 4480, 4481, 4452, 4470, 4472, 3048 (FIGS. 1 and 2) were made by dissolving them in DMSO (Fluka 41641). 30 μl of the compound solutions was diluted to 1.5 ml with Nanopure water, and 50 μl aliquots added as follows into a white, 96-well luminometer plate: PBI 4481, row A1-12; PBI 4480, row B1-12; PBI 4452, row C1-12; PBI 3048, row D1-12; PBI 4472, row E1-12 and PBI 4470, row F1-12.
25 μl of 200 mM TRIS buffer, pH 7.6 was added to wells A1-F4, 25 μl of 200 mM TRIS buffer, pH 8.8 was added to wells A5-F8, and 25 μl of 200 mM Tris buffer, pH 10.4 was added […].
30% hydrogen peroxide (Sigma H 1009-5 ml) was diluted to 40 μM in Nanopure water, and 25 μl added to columns 3, 4, 7, 8, 11 and 12 of the plate. 25 μl water was added to columns 1, 2, 5, 6, 9, and 10 of the plate, and the plate incubated at room temperature for 60 minutes.
A conversion solution was made by mixing 100 μl of 100 mM D-cysteine, 1 ml Tris Buffer pH 8.8 and 8.9 ml nanopure water. After mixing, 80 μl of the solution was added to wells A1-F12 of a new luminometer plate.
After incubation, 20 μl of sample from wells A1-F12 of the first plate was transferred to the same well in the new luminometer plate. The new plate was incubated at room temperature for 5 minutes, 100 μl of LDR (Example 23) was added to wells A1-F12, and bioluminescence detected on a Glo Max® luminometer (Promega).
The RLUs for the duplicate wells were averaged. The averages for the wells containing hydrogen peroxide were compared to the wells without hydrogen peroxide at the same pH (Table 2). BZT is used to designate benzothiazole derivatives of the compounds.
The Signal to Background (S/B) ratio is used to compare assay reagents with very difference signal strengths. An assay with a higher S/B ratio is often considered a better assay than one with a smaller S/B ratio (with all other factors being relatively equal).

[2] = Generation of bioluminescence from luciferin borates upon treatment with hydrogen peroxide (luciferase light reaction); type: biochemical; settings: for light signal increase upon addition of hydrogen peroxide (in words): all pH values 6.87 to 9.18
Procedure: In this example, luciferin borates were incubated with hydrogen peroxide, and luciferin generation was measured using a light reaction catalyzed by luciferase. An increase in light output (bioluminescence) as a result of treatment of the luciferin borates with hydrogen peroxide indicates generation of luciferin as a result of the reaction with hydrogen peroxide.
1 M phosphate solutions (either 6.8 g of KH2PO4 (Fisher) or 11.4 g of K2HPO4 (Sigma) were dissolved in Nanopure water to 1 M) were diluted 1:5 with Nanopure water to produce 200 mM phosphate solutions. 200 mM phosphate buffers at pH 6.87, 7.41, 7.73, 8.04, and 9.18 were prepared. 4 mg/ml solutions of PBI 3048, 4013, 4424 and 4425 (FIG. 1) in DMSO (Fluka 41641) were made from solid powder.
Into two 96-well white, solid bottom luminometer plates (Promega Z3291) (labeled “A” and “B”), 50 μl of 200 mM phosphate buffer pH 6.87 was added to wells A1-H2; 50 μl of 200 mM phosphate pH 7.41 was added to wells A3-H4; 50 μl of 200 mM phosphate buffer pH 7.73 was added to wells A5-H6; 50 μl of 200 mM phosphate buffer pH 8.04 was added to wells A7-H8; and 50 μl of 200 mM phosphate buffer pH 9.18 was added to wells A9-H10.
50 μl of 4 mg/ml PBI 4013 in DMSO was diluted to 1.25 ml with Nanopure water, and 25 μl added to wells A1-D10 of plate A. 50 μl of 4 mg/ml PBI 4424 was diluted to 1.25 ml with Nanopure water, and 25 μl added to E1-H10 of plate A. 50 μl of 4 mg/ml PBI 3048 was diluted to 1.25 ml with Nanopure water, and 25 μl added to A1-D10 of plate B. 50 μl of 4 mg/ml PBI 4425 was diluted to 1.25 ml with Nanopure water, and 25 μl added to E1-H10 of plate B. 25 μl of Nanopure water was added to rows A and E of both plates. 17 μl of Nanopure water was added to rows B and F of both plates; and 8 μl of Nanopure water was added to rows C and G of both plates
A hydrogen peroxide solution (30% hydrogen peroxide, Sigma H1009-5 ml) was diluted to 60 μM hydrogen peroxide with Nanopure water, and 25 μl of the 60 μM hydrogen peroxide was added to rows D and H of both plates; 17 μl of […] hydrogen peroxide was added to rows C and G of both plates; and 8 μl of […] hydrogen peroxide was added to rows B and F of both plates. Both plates A and B were then gently mixed for 70 minutes.
A bottle of Reconstitution Buffer with Esterase (Promega V144B) was thawed and used to reconstitute a Luciferin Detection Reagent (Promega V859B) to create a reconstituted Luciferin Detection Reagent (“LDR”). 15 ml of 1 M HEPES buffer, pH 7.5 was mixed with 25 ml of the LDR, and 80 μl added to wells A1-H10 of two new luminometer plates (“R1” and “R2”).
Following incubation, 20 μl of the contents of wells A1-H10 of plate A was transferred to the same wells in plate R1, and 20 μl of A1-H10 of plate B was transferred to the same wells in plate R2. Plate R1 and R2 were then incubated at room temperature for 15 minutes, and bioluminescence was measured with a GloMax® luminometer (Promega Corp).
Bioluminescence from duplicate wells was averaged, and the average relative light units (RLUs) from samples containing peroxide were compared to those from the samples not containing peroxide incubated at the same pH (Table 1).

[3] = pH 7.6 TRIS buffer, No H2O2, 60 minutes
[4] = pH 7.6 TRIS buffer, With H2O2 (25 μl of 40 μM added), 60 minutes
[5] = pH 8.8 TRIS buffer, No H2O2, 60 minutes
[6] = pH 8.8 TRIS buffer, With H2O2 (25 μl of 40 μM added), 60 minutes
[7] = pH 10.4 Tris buffer, No H2O2, 60 minutes
[8] = pH 10.4 Tris buffer, With H2O2 (25 μl of 40 μM added), 60 minutes
[9] = H2O2 0 μM, phosphate buffer pH 6.87, 70 minutes
[10] = H2O2 0 μM, phosphate buffer pH 7.41, 70 minutes
[11] = H2O2 0 μM, phosphate buffer pH 7.73, 70 minutes
[12] = H2O2 0 μM, phosphate buffer pH 8.04, 70 minutes
[13] = H2O2 0 μM, phosphate buffer pH 9.18, 70 minutes
[14] = H2O2 5 μM, phosphate buffer pH 6.87, 70 minutes
[15] = H2O2 5 μM, phosphate buffer pH 7.41, 70 minutes
[16] = H2O2 5 μM, phosphate buffer pH 7.73, 70 minutes
[17] = H2O2 5 μM, phosphate buffer pH 8.04, 70 minutes
[18] = H2O2 5 μM, phosphate buffer pH 9.18, 70 minutes
[19] = H2O2 10 μM, phosphate buffer pH 6.87, 70 minutes
[20] = H2O2 10 μM, phosphate buffer pH 7.41, 70 minutes
[21] = H2O2 10 μM, phosphate buffer pH 7.73, 70 minutes
[22] = H2O2 10 μM, phosphate buffer pH 8.04, 70 minutes
[23] = H2O2 10 μM, phosphate buffer pH 9.18, 70 minutes
[24] = H2O2 15 μM, phosphate buffer pH 6.87, 70 minutes
[25] = H2O2 15 μM, phosphate buffer pH 7.41, 70 minutes
[26] = H2O2 15 μM, phosphate buffer pH 7.73, 70 minutes
[27] = H2O2 15 μM, phosphate buffer pH 8.04, 70 minutes
[28] = H2O2 15 μM, phosphate buffer pH 9.18, 70 minutes

SMILES | average relative light units (bioluminescence) [2, 9] | average relative light units (bioluminescence) [2, 10] | average relative light units (bioluminescence) [2, 11] | average relative light units (bioluminescence) [2, 12] | average relative light units (bioluminescence) [2, 13] | average relative light units (bioluminescence) [2, 14] | average relative light units (bioluminescence) [2, 15] | average relative light units (bioluminescence) [2, 16] | average relative light units (bioluminescence) [2, 17] | average relative light units (bioluminescence) [2, 18] | average relative light units (bioluminescence) [2, 19] | average relative light units (bioluminescence) [2, 20] | average relative light units (bioluminescence) [2, 21] | average relative light units (bioluminescence) [2, 22] | average relative light units (bioluminescence) [2, 23] | average relative light units (bioluminescence) [2, 24] | average relative light units (bioluminescence) [2, 25] | average relative light units (bioluminescence) [2, 26] | average relative light units (bioluminescence) [2, 27] | average relative light units (bioluminescence) [2, 28] | further results
N#Cc1nc2ccc(OCc3ccc(B(O)O)c(Cl)c3)cc2s1 [PBI 4470, (2-chloro-4-(((2-cyanobenzo[d]thiazol-6-yl)oxy)methyl)phenyl)boronic acid] |  |  |  |  |  |  |  |  |  |  |  |  |  |  |  |  |  |  |  |  | Signal to Background Ratios ([1]; pH 7.6): 1.4; averaged RLUs (bioluminescence) [1, 3]: 492,941 RLU; averaged RLUs (bioluminescence) [1, 4]: 701,300 RLU; Signal to Background Ratios ([1]; pH 8.8): 3.3; averaged RLUs (bioluminescence) [1, 5]: 468,729 RLU; averaged RLUs (bioluminescence) [1, 6]: 1,525,058 RLU; Signal to Background Ratios ([1]; pH 10.4): 16.3; averaged RLUs (bioluminescence) [1, 7]: 819,416 RLU; averaged RLUs (bioluminescence) [1, 8]: 13,391,102 RLU
N#Cc1nc2ccc(OCc3ccc(B(O)O)cc3)cc2s1 [PBI 4452, (4-(((2-cyanobenzo[d]thiazol-6-yl)oxy)methyl)phenyl)boronic acid] |  |  |  |  |  |  |  |  |  |  |  |  |  |  |  |  |  |  |  |  | Signal to Background Ratios ([1]; pH 7.6): 1.9; averaged RLUs (bioluminescence) [1, 3]: 607,036 RLU; averaged RLUs (bioluminescence) [1, 4]: 1,182,338 RLU; Signal to Background Ratios ([1]; pH 8.8): 4.4; averaged RLUs (bioluminescence) [1, 5]: 632,327 RLU; averaged RLUs (bioluminescence) [1, 6]: 2,790,924 RLU; Signal to Background Ratios ([1]; pH 10.4): 15.8; averaged RLUs (bioluminescence) [1, 7]: 921,935 RLU; averaged RLUs (bioluminescence) [1, 8]: 14,577,312 RLU
O=C(O)C1CSC(c2nc3ccc(OCc4ccc(B(O)O)c5ccccc45)cc3s2)=N1 (stereo not drawn) [PBI 4013] | 421,702 RLU | 469,602 RLU | 573,023 RLU | 585,008 RLU | 700,831 RLU | 580,978 RLU | 760,900 RLU | 1,089,717 RLU | 1,534,619 RLU | 3,678,815 RLU | 680,475 RLU | 1,020,315 RLU | 1,634,356 RLU | 2,485,677 RLU | 5,433,577 RLU | 793,789 RLU | 1,282,281 RLU | 2,209,227 RLU | 3,373,538 RLU | 7,062,631 RLU | light signal increase upon addition of hydrogen peroxide (in words) [2]: increased strongly

Continued, in another order:

average relative light units (bioluminescence) [2, 9] | average relative light units (bioluminescence) [2, 10] | average relative light units (bioluminescence) [2, 11] | average relative light units (bioluminescence) [2, 12] | average relative light units (bioluminescence) [2, 13] | average relative light units (bioluminescence) [2, 14] | average relative light units (bioluminescence) [2, 15] | average relative light units (bioluminescence) [2, 16] | average relative light units (bioluminescence) [2, 17] | average relative light units (bioluminescence) [2, 18] | average relative light units (bioluminescence) [2, 19] | average relative light units (bioluminescence) [2, 20] | average relative light units (bioluminescence) [2, 21] | average relative light units (bioluminescence) [2, 22] | average relative light units (bioluminescence) [2, 23] | average relative light units (bioluminescence) [2, 24] | average relative light units (bioluminescence) [2, 25] | average relative light units (bioluminescence) [2, 26] | average relative light units (bioluminescence) [2, 27] | average relative light units (bioluminescence) [2, 28] | SMILES | further results
17,522 RLU | 16,181 RLU | 17,087 RLU | 18,602 RLU | 17,794 RLU | 18,952 RLU | 17,583 RLU | 18,681 RLU | 20,935 RLU | 22,309 RLU | 19,891 RLU | 17,508 RLU | 19,298 RLU | 20,554 RLU | 20,333 RLU | 20,263 RLU | 19,332 RLU | 25,729 RLU | 21,486 RLU | 20,453 RLU | O=C(O)C1CSC(c2nc3ccc(OCc4c(B(O)O)ccc5ccccc45)cc3s2)=N1 (stereo not drawn) [PBI 4424] | light signal increase upon addition of hydrogen peroxide (in words) [2]: much smaller
10,464 RLU | 10,266 RLU | 9,302 RLU | 10,312 RLU | 9,428 RLU | 13,296 RLU | 14,549 RLU | 13,739 RLU | 15,130 RLU | 19,728 RLU | 14,491 RLU | 14,768 RLU | 17,086 RLU | 19,258 RLU | 26,859 RLU | 14,105 RLU | 14,725 RLU | 15,789 RLU | 18,905 RLU | 24,236 RLU | CC(Oc1ccc2nc(C3=NC(C(=O)O)CS3)sc2c1)c1ccc(B(O)O)cc1 (stereo not drawn) [PBI 4425] | light signal increase upon addition of hydrogen peroxide (in words) [2]: much smaller
